Data from patent publication US20200163984A1, “USE OF ISOVALERYL SPIRAMYCIN I, II AND/OR III IN MANUFACTURING MEDICAMENT FOR TREATING AND/OR PREVENTING TUMOR, AND MEDICAMENT” (SHENYANG FUYANG PHARMACEUTICAL TECHNOLOGY CO., LTD., priority 2017, published 2020).

Tests used:
[1] = system: transplanted tumor of human breast cancer cell MCF-7; experiment: MCF-7 transplanted tumor in nude mice
[2] = system: transplanted tumor of HL60 cells; experiment: HL-60 transplanted tumor in nude mice; conditions: for Tumor Volume (mm3) (d30): d 30
In short: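 Nude mice, 6 per group, were dosed intragastrically at 25, 50 or 100 mg/kg for 30 days once subcutaneous HL-60 xenografts (0.2 ml, 1×10^7 cells/ml in matrigel) reached ≥100 mm^3. Readouts: T/C% from relative tumor volume (V=a×b^2/2, measured every 3 days) and inhibition from excised tumor weight.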

[3] = system: transplanted tumor of HT-29 cells; experiment: HT-29 transplanted tumor in nude mice; conditions: for Inhibition Rate (%) / Tumor Weight: HT-29 nude mice; for Tumor Volume (mm3) (d30): d 30
[4] = MCF-7, 25 mg/kg (low dose) i.g. 30 days
[5] = MCF-7, 50 mg/kg (medium dose) i.g. 30 days
[6] = MCF-7, 100 mg/kg (high dose) i.g. 30 days
[7] = HL-60, high dose (100 mg/kg in method) i.g. 30 days
[8] = HL-60, low dose (25 mg/kg in method) i.g. 30 days
[9] = HL-60, medium dose (50 mg/kg in method) i.g. 30 days
[10] = HT-29, high dose (100 mg/kg in method) i.g. 30 days
[11] = HT-29, low dose (25 mg/kg in method) i.g. 30 days
[12] = HT-29, medium dose (50 mg/kg in method) i.g. 30 days

CCC(=O)O[C@@H]1CC(=O)O[C@H](C)C/C=C/C=C/[C@H](O[C@H]2CC[C@H](N(C)C)[C@@H](C)O2)[C@H](C)C[C@H](CC=O)[C@H](O[C@@H]2O[C@H](C)[C@@H](O[C@H]3C[C@@](C)(O)[C@@H](OC(=O)CC(C)C)[C@H](C)O3)[C@H](N(C)C)[C@H]2O)[C@H]1OC [Isovaleryl spiramycin III, isovaleryl spiramycin III]
Inhibition Rate (tumor growth inhibition rate) [1, 4]: 26.75%
Relative Tumor Proliferation Rate (T/C) [1, 4]: 75.03%
Relative Tumor Volume (RTV) [1, 4]: 13.13 ± 3.15
Tumor Volume (d 1) [1, 4]: 137.99 ± 20.99 mm3
Tumor Volume (d 30) [1, 4]: 1758.49 ± 129.06 mm3
Tumor Weight [1, 4]: 1.99 ± 0.81 g
Inhibition Rate (tumor growth inhibition rate) [1, 5]: 39.09%
Relative Tumor Proliferation Rate (T/C) [1, 5]: 54.92%
Relative Tumor Volume (RTV) [1, 5]: 9.61 ± 1.66
Tumor Volume (d 1) [1, 5]: 109.95 ± 13.42 mm3
Tumor Volume (d 30) [1, 5]: 1043.33 ± 113.01 mm3
Tumor Weight [1, 5]: 1.66 ± 0.66 g
Inhibition Rate (tumor growth inhibition rate) ([1]; MCF-7, 50 mg/kg (medium dose) i.g. 30 days, listed as isovaleryl spiramycin III): 39.08%
Inhibition Rate (tumor growth inhibition rate) [1, 6]: 61.78%
Relative Tumor Proliferation Rate (T/C) [1, 6]: 34.90%
Relative Tumor Volume (RTV) [1, 6]: 5.17 ± 0.64
Tumor Volume (d 1) [1, 6]: 113.14 ± 9.02 mm3
Tumor Volume (d 30) [1, 6]: 684.21 ± 115.00 mm3
Tumor Weight [1, 6]: 1.03 ± 0.54 g
Relative Tumor Proliferation Rate (T/C) ([1]; MCF-7, 100 mg/kg (high dose) i.g. 30 days, listed as isovaleryl spiramycin III): 34.91%
tumor volume and relative tumor volume compared with the model group ([1]; MCF-7, low, medium and high doses, P<0.05): significantly lower
mouse weight compared with the model group ([1]; mouse, in vivo): no significant changes
Relative Tumor Proliferation Rate (T/C) [2, 7]: 39.87%
tumor growth inhibition rate [2, 7]: 55.05%
Relative Tumor Proliferation Rate (T/C) [2, 8]: 76.09%
tumor growth inhibition rate [2, 8]: 17.10%
tumor volume and relative tumor volume compared with the model group ([2]; HL-60, low, medium and high doses, P<0.05): significantly lower
Relative Tumor Proliferation Rate (T/C) [2, 9]: 61.90%
tumor growth inhibition rate [2, 9]: 29.92%
Inhibition Rate (%) ([2]; dose 25 mg/kg): 17.10%
Relative Tumor Proliferation Rate (T/C) ([2]; dose 25 mg/kg): 76.09%
Relative Tumor Volume (RTV) ([2]; dose 25 mg/kg): 8.56 ± 1.82
Tumor Weight ([2]; dose 25 mg/kg): 1.88 ± 0.25 g
Tumor Volume (mm3) (d 1) ([2]; dose 25 mg/kg): 184.12 ± 22.53 mm3
Tumor Volume (mm3) (d30) ([2]; dose 25 mg/kg): 1543.27 ± 190.73 mm3
Inhibition Rate (%) ([2]; dose 50 mg/kg): 29.92%
Relative Tumor Proliferation Rate (T/C) ([2]; dose 50 mg/kg): 61.90%
Relative Tumor Volume (RTV) ([2]; dose 50 mg/kg): 6.96 ± 2.25
Tumor Weight ([2]; dose 50 mg/kg): 1.59 ± 0.45 g
Tumor Volume (mm3) (d 1) ([2]; dose 50 mg/kg): 189.31 ± 24.59 mm3
Tumor Volume (mm3) (d30) ([2]; dose 50 mg/kg): 1308.87 ± 436.30 mm3
Inhibition Rate (%) ([2]; dose 100 mg/kg): 55.05%
Relative Tumor Proliferation Rate (T/C) ([2]; dose 100 mg/kg): 39.87%
Relative Tumor Volume (RTV) ([2]; dose 100 mg/kg): 4.48 ± 2.94
Tumor Weight ([2]; dose 100 mg/kg): 1.01 ± 0.41 g
Tumor Volume (mm3) (d 1) ([2]; dose 100 mg/kg): 188.01 ± 27.66 mm3
Tumor Volume (mm3) (d30) ([2]; dose 100 mg/kg): 789.65 ± 404.78 mm3
mouse weight compared with the model group ([2]; mouse, in vivo): no significant changes
Body Weight (g) (d1) ([2]; mouse, in vivo, 25 mg/kg): 20.60 ± 1.57 g
Body Weight (g) (d30) ([2]; mouse, in vivo, 25 mg/kg): 20.67 ± 1.51 g
Body Weight (g) (d1) ([2]; mouse, in vivo, 50 mg/kg): 20.82 ± 1.42 g
Body Weight (g) (d30) ([2]; mouse, in vivo, 50 mg/kg): 20.59 ± 1.36 g
Body Weight (g) (d1) ([2]; mouse, in vivo, 100 mg/kg): 20.2l ± l .87 g
Body Weight (g) (d30) ([2]; mouse, in vivo, 100 mg/kg): 20.25 ± 1.22 g
Relative Tumor Proliferation Rate (T/C) [3, 10]: 35.63%
tumor growth inhibition rate [3, 10]: 63.19%
Relative Tumor Proliferation Rate (T/C) [3, 11]: 85.54%
tumor growth inhibition rate [3, 11]: 19.22%
tumor volume and relative tumor volume compared with the model group ([3]; HT-29, low, medium and high doses, P<0.05): significantly lower
Relative Tumor Proliferation Rate (T/C) [3, 12]: 53.48%
tumor growth inhibition rate [3, 12]: 41.35%
Inhibition Rate (%) ([3]; 25 mg/kg): 19.22%
Tumor Weight ([3]; 25 mg/kg): 1.90 ± 0.39 g
Inhibition Rate (%) ([3]; 50 mg/kg): 41.35%
Tumor Weight ([3]; 50 mg/kg): 1.38 ± 0.37 g
Inhibition Rate (%) ([3]; 100 mg/kg): 63.19%
Tumor Weight ([3]; 100 mg/kg): 0.87 ± 0.34 g
Relative Tumor Proliferation Rate (T/C) ([3]; dose 25 mg/kg): 85.54%
Relative Tumor Volume (RTV) ([3]; dose 25 mg/kg): 12.32 ± 4.51
Tumor Volume (mm3) (d 1) ([3]; dose 25 mg/kg): 154.49 ± 33.07 mm3
Tumor Volume (mm3) (d30) ([3]; dose 25 mg/kg): 1803.16 ± 368.50 mm3
Relative Tumor Proliferation Rate (T/C) ([3]; dose 50 mg/kg): 53.48%
Relative Tumor Volume (RTV) ([3]; dose 50 mg/kg): 7.70 ± 1.65
Tumor Volume (mm3) (d 1) ([3]; dose 50 mg/kg): 161.76 ± 30.69 mm3
Tumor Volume (mm3) (d30) ([3]; dose 50 mg/kg): 1252.64 ± 404.06 mm3
Relative Tumor Proliferation Rate (T/C) ([3]; dose 100 mg/kg): 35.63%
Relative Tumor Volume (RTV) ([3]; dose 100 mg/kg): 5.13 ± 1.13
Tumor Volume (mm3) (d 1) ([3]; dose 100 mg/kg): 160.38 ± 38.86 mm3
Tumor Volume (mm3) (d30) ([3]; dose 100 mg/kg): 826.76 ± 259.70 mm3
mouse weight compared with the model group ([3]; mouse, in vivo): no significant changes
Body Weight (g) (d1) ([3]; mouse, in vivo, 25 mg/kg): 21.31 ± 1.23 g
Body Weight (g) (d30) ([3]; mouse, in vivo, 25 mg/kg): 21.19 ± 1.52 g
Body Weight (g) (d1) ([3]; mouse, in vivo, 50 mg/kg): 21.22 ± 1.24 g
Body Weight (g) (d30) ([3]; mouse, in vivo, 50 mg/kg): 21.00 ± 0.98 g
Body Weight (g) (d1) ([3]; mouse, in vivo, 100 mg/kg): 21.34 ± 1.78 g
Body Weight (g) (d30) ([3]; mouse, in vivo, 100 mg/kg): 21.09 ± 1.43 g
